Molecular target: T1, EZH2 (Homo sapiens, UniProt Q15910)
T1 construct: Protocol of the Cellular Assay of Target Protein Degradation (VCaP Cells, ELISA); endogenous in cells; host or cells: VCaP cells
Experiment: Cellular assay of target protein degradation (VCaP cells, ELISA)
Assay type: cell-based
Details: 4 hours, protein degradation range at indicated concentration (relative to DMSO control)
Outline: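 VCaP cells grown ≥3 days in RPMI with 5% CSS, then dosed with compounds in 0.1% DMSO for 4 h. Lysates analysed by sandwich ELISA for EZH2 with TMB readout at 450 nm, 562 nm used for background subtraction.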

T1 sequence (Q15910 whole entry): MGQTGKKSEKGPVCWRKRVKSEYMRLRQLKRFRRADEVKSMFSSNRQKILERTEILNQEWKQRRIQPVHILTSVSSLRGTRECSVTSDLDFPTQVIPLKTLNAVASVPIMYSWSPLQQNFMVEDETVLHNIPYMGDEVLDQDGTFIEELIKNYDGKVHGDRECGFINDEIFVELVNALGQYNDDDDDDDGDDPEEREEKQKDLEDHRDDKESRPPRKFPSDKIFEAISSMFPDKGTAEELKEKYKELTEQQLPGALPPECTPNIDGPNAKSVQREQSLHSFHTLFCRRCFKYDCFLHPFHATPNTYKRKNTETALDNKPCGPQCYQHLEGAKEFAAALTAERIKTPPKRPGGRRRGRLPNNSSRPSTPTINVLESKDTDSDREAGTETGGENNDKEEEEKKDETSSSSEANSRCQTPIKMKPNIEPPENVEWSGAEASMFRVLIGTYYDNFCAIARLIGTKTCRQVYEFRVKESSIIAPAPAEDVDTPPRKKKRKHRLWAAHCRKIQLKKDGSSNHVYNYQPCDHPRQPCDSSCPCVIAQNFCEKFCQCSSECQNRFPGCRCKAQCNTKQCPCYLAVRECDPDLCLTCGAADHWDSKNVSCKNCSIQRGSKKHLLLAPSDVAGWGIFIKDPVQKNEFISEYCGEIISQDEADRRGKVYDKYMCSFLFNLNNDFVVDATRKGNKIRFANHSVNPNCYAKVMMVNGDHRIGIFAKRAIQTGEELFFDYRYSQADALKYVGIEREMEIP
T1 sequence (O75530 whole entry partner): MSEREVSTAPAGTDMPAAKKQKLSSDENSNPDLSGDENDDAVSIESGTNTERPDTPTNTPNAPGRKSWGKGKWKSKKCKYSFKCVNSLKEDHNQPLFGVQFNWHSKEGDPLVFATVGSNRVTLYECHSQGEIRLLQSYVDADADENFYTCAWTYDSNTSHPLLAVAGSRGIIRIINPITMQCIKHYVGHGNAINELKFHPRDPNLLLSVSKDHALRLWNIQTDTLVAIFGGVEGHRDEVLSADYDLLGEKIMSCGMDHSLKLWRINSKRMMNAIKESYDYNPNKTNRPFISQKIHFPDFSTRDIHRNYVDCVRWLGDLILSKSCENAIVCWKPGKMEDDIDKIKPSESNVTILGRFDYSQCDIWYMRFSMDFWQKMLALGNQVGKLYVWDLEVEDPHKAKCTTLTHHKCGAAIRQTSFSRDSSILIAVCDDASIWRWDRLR
T1 sequence (Q15022 whole entry partner): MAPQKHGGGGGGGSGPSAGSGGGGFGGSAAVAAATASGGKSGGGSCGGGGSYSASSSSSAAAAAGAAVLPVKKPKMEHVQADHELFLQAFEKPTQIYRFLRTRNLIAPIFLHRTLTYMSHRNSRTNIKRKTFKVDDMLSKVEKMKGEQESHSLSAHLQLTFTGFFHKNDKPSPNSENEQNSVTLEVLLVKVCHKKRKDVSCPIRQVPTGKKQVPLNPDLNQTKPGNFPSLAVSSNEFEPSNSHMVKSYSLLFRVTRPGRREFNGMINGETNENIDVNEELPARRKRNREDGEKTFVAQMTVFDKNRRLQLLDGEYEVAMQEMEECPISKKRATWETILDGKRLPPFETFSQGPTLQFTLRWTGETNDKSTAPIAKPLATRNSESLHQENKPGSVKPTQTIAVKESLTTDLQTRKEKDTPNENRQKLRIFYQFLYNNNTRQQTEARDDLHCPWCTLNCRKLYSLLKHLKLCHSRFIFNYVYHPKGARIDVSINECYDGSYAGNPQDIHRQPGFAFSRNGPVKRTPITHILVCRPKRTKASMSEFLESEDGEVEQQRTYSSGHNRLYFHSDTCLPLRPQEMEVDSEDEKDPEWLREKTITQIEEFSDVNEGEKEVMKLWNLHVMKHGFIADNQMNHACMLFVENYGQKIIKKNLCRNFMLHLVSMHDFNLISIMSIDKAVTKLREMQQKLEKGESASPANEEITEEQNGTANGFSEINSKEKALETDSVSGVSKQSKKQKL

Row | percent target protein degradation class | SMILES
1 | A (A = degradation more than 60%) | CCN(c1cc(-c2ccc(OCCOCCOCC(=O)N[C@H](C(=O)N3C[C@H](O)C[C@H]3C(=O)NCc3ccc(-c4scnc4C)cc3)C(C)(C)C)cc2)cc(C(=O)NCc2c(C)cc(C)[nH]c2=O)c1C)C1CCOCC1 [Compound 31]
2 | B (B = degradation between 30% and 60%) | CCN(c1cc(-c2ccc(OCCOCCOCCOc3ccc(-c4csc([C@@H]5CCCN5C(=O)[C@@H](NC(=O)[C@H](C)NC)C5CCCCC5)n4)c4ccccc34)cc2)cc(C(=O)NCc2c(C)cc(C)[nH]c2=O)c1C)C1CCOCC1 [Compound 28, 5-{4-[2-(2-{2-[(4-{2-[(2S)-1-[(2S)-2-cyclohexyl-2-[(2S)-2-(methylamino)propanamido]acetyl]pyrrolidin-2-yl]-1,3-thiazol-4-yl}naphthalen-1-yl)oxy]ethoxy}ethoxy)ethoxy]phenyl}-N-[(4,6-dimethyl-2-oxo-1,2-dihydropyridin-3-yl)methyl]-3-[ethyl(oxan-4-yl)amino]-2-methylbenzamide]
3 | A (A = degradation more than 60%) | CCN(c1cc(-c2ccc(OCCCOCC(=O)N[C@H](C(=O)N3C[C@H](O)C[C@H]3C(=O)NCc3ccc(-c4scnc4C)cc3)C(C)(C)C)cc2)cc(C(=O)NCc2c(C)cc(C)[nH]c2=O)c1C)C1CCOCC1 [Compound 41, (2S,4R)-1-[(2S)-2-(2-{3-[4-(3-{[(4,6-dimethyl-2-oxo-1,2-dihydropyridin-3-yl)methyl]carbamoyl}-5-[ethyl(oxan-4-yl)amino]-4-methylphenyl)phenoxy]propoxy}acetamido)-3,3-dimethylbutanoyl]-4-hydroxy-N-{[4-(4-methyl-1,3-thiazol-5-yl)phenyl]methyl}pyrrolidine-2-carboxamide]
4 | A (A = degradation more than 60%) | CCN(c1cc(-c2ccc(OCCOCCOc3cc(C(C(=O)N4C[C@H](O)C[C@H]4C(=O)N[C@@H](C)c4ccc(-c5scnc5C)cc4)C(C)C)on3)cc2)cc(C(=O)NCc2c(C)cc(C)[nH]c2=O)c1C)C1CCOCC1 (stereo partly drawn) [Compound 105]
5 | B (B = degradation between 30% and 60%) | CCN(c1cc(-c2ccc(OCCOCCOCCOCCOCCOCCOCCNc3cccc4c3C(=O)N(C3CCC(=O)NC3=O)C4=O)cc2)cc(C(=O)NCc2c(C)cc(C)[nH]c2=O)c1C)C1CCOCC1 (stereo not drawn) [Compound 20, N-[(4,6-dimethyl-2-oxo-1,2-dihydropyridin-3-yl)methyl]-5-[4-({1-[2-(2,6-dioxopiperidin-3-yl)-1,3-dioxo-2,3-dihydro-1H-isoindol-4-yl]-4,7,10,13,16,19-hexaoxa-1-azahenicosan-21-yl}oxy)phenyl]-3-[ethyl(oxan-4-yl)amino]-2-methylbenzamide]
6 | B (B = degradation between 30% and 60%) | CCN(c1cc(-c2ccc(OCCCOCCOCCOc3cc(-c4scnc4C)ccc3CNC(=O)[C@@H]3C[C@@H](O)CN3C(=O)[C@H](C(C)C)N3Cc4ccccc4C3=O)cc2)cc(C(=O)NCc2c(C)cc(C)[nH]c2=O)c1C)C1CCOCC1 [Compound 54, (2S,4R)-N-({2-[2-(2-{3-[4-(3-{[(4,6-dimethyl-2-oxo-1,2-dihydropyridin-3-yl)methyl]carbamoyl}-5-[ethyl(oxan-4-yl)amino]-4-methylphenyl)phenoxy]propoxy}ethoxy)ethoxy]-4-(4-methyl-1,3-thiazol-5-yl)phenyl}methyl)-4-hydroxy-1-[(2S)-3-methyl-2-(1-oxo-2,3-dihydro-1H-isoindol-2-yl)butanoyl]pyrrolidine-2-carboxamide]
7 | A (A = degradation more than 60%) | CCN(c1cc(-c2ccc(OCCCOCC(=O)N[C@H](C(=O)N3C[C@H](O)C[C@H]3C(=O)N[C@@H](C)c3ccc(-c4scnc4C)cc3)C(C)(C)C)cc2)cc(C(=O)NCc2c(C)cc(C)[nH]c2=O)c1C)C1CCOCC1 [Compound 95, (2S,4R)-1-((S)-2-(2-(3-((3′-(((4,6-dimethyl-2-oxo-1,2-dihydropyridin-3-yl)methyl)carbamoyl)-5′-(ethyl(tetrahydro-2H-pyran-4-yl)amino)-4′-methyl-[1,1′-biphenyl]-4-yl)oxy)propoxy)acetamido)-3,3-dimethylbutanoyl)-4-hydroxy-N-((S)-1-(4-(4-methylthiazol-5-yl)phenyl)ethyl)pyrrolidine-2-carboxamide]

Row | SMILES | percent target protein degradation class
8 | Cc1cc(C)c(CNC(=O)c2cc(-c3ccc(CN4CCN(CCOCCCOCCCOCC(=O)N[C@H](C(=O)N5C[C@H](O)C[C@H]5C(=O)NCc5ccc(-c6scnc6C)cc5)C(C)(C)C)CC4)cc3)cc3c2ccn3C2CCCC2)c(=O)[nH]1 [Compound 4, 1-cyclopentyl-N-[(4,6-dimethyl-2-oxo-1,2-dihydropyridin-3-yl)methyl]-6-(4-{[4-(2-{3-[3-({[(2S)-1-[(2S,4R)-4-hydroxy-2-({[4(4-methyl-1,3-thiazol-5-yl)phenyl]methyl}carbamoyl)pyrrolidin-1-yl]-3,3-dimethyl-1-oxobutan-2-yl]carbamoyl}methoxy)propoxy]propoxy}ethyl)piperazin-1-yl]methyl}phenyl)-1H-indole-4-carboxamide] | B (B = degradation between 30% and 60%)
9 | CCN(c1cc(-c2ccc(OCCCCOc3ccc4c(c3)C(=O)N([C@H](C(=O)N3C[C@H](O)C[C@H]3C(=O)N[C@@H](C)c3ccc(-c5scnc5C)cc3)C(C)C)C4)cc2)cc(C(=O)NCc2c(C)cc(C)[nH]c2=O)c1C)C1CCOCC1 [Compound 102] | B (B = degradation between 30% and 60%)
10 | Cc1cc(C)c(CNC(=O)c2cc(-c3ccc(CN4CCN(CCOCCCCCOCCCCCOCC(=O)N[C@H](C(=O)N5C[C@H](O)C[C@H]5C(=O)NCc5ccc(-c6scnc6C)cc5)C(C)(C)C)CC4)cc3)cc3c2ccn3C2CCCC2)c(=O)[nH]1 [Compound 6, 1-cyclopentyl-N-[(4,6-dimethyl-2-oxo-1,2-dihydropyridin-3-yl)methyl]-6-[4-[(4-{2-[(5-{[5-({[(2S)-1-[(2S,4R)-4-hydroxy-2-({[4-(4-methyl-1,3-thiazol-5-yl)phenyl]methyl}carbamoyl)pyrrolidin-1-yl]-3,3-dimethyl-1-oxobutan-2-yl]carbamoyl}methoxy)pentyl]oxy}pentyl)oxy]ethyl}piperazin-1-yl)methyl]phenyl}-1H-indole-4-carboxamide] | B (B = degradation between 30% and 60%)
11 | CCN(c1cc(-c2ccc(OCCCCOc3ccc4c(c3)C(=O)N([C@@H](C(=O)N3C[C@H](O)C[C@H]3C(=O)N[C@@H](C)c3ccc(-c5scnc5C)cc3)C(C)C)C4)cc2)cc(C(=O)NCc2c(C)cc(C)[nH]c2=O)c1C)C1CCOCC1 [Compound 101, (2S,4R)-1-((R)-2-(6-(4-((3′-(((4,6-dimethyl-2-oxo-1,2-dihydropyridin-3-yl)methyl)carbamoyl)-5′-(ethyl(tetrahydro-2H-pyran-4-yl)amino)-4′-methyl-[1,1′-biphenyl]-4-yl)oxy)butoxy)-1-oxoisoindolin-2-yl)-3-methylbutanoyl)-4-hydroxy-N-((S)-1-(4-(4-methylthiazol-5-yl)phenyl)ethyl)pyrrolidine-2-carboxamide] | B (B = degradation between 30% and 60%)
12 | Cc1cc(C)c(CNC(=O)c2c(C)n(C(C)C3CCN(C(=O)COCCOCCOCCOCCNc4cccc5c4C(=O)N(C4CCC(=O)NC4=O)C5=O)CC3)c3ccccc23)c(=O)[nH]1 (stereo not drawn) [Compound 10, N-[(4,6-dimethyl-2-oxo-1,2-dihydropyridin-3-yl)methyl]-1-[1-(1-{1-[2-(2,6-dioxopiperidin-3-yl)-1,3-dioxo-2,3-dihydro-1H-isoindol-4-yl]-4,7,10,13-tetraoxa-1-azapentadecanoyl}piperidin-4-yl)ethyl]-2-methyl-1H-indole-3-carboxamide] | B (B = degradation between 30% and 60%)
